We go through 20 molecules from patent publication US5140015A, “2-aralkoxy and 2-alkoxy adenosine derivatives as coronary vasodilators and antihypertensive agents” (Whitby Research, Inc., priority 1990, dated 1992).

Like-named read-outs stand apart in the source and are kept apart here.

What all share (design): species or system guinea pig (female Sprague-Dawley)
The target of assay [1] is T1, A2 receptor of the coronary artery (Cavia porcellus, UniProt P46616).
T1 construct: perfused hearts from female Sprague-Dawley guinea pigs in an isolated Langendorff heart preparation; from tissue; host or cells: isolated perfused guinea pig heart (Langendorff), coronary vasculature
Description: Coronary flow increase in isolated perfused heart (Langendorff preparation). The procedure: (§1) Assays of the cardiovascular potency of the above compounds at the A1 receptors of the SA node and at the A2 receptor of the coronary artery employed perfused hearts from female Sprague-Dawley guinea pigs in an isolated Langendorff heart preparation. An assay consists of an infusion of a spectophotometrically standardized solution of test compound directly into the aortic cannula at rates increasing stepwise every 5 minutes. Collection of the total cardiac effluent during the first half of each infusion period provides a measure of coronary flow (A2 effect). The concentration of test compound required to produce a half-maximal increase in coronary flow is determined. Registration of the ECG assesses the effect of the test compound on SA node (stimulus to Q interval, A1 effect). The concentration of test compound required to produce a half-maximal prolongation of stimulus to Q interval is determined. […] The ratio of A1 and A2 effects of test compounds are calculated to provide the selectivity ratio.

The target of assay [2] is T2, A1 receptors of the SA node (Cavia porcellus, UniProt P47745).
T2 construct: perfused hearts from female Sprague-Dawley guinea pigs in an isolated Langendorff heart preparation; from tissue; host or cells: isolated perfused guinea pig heart (Langendorff), nodal tissue
T2 sequence (P47745 1-326): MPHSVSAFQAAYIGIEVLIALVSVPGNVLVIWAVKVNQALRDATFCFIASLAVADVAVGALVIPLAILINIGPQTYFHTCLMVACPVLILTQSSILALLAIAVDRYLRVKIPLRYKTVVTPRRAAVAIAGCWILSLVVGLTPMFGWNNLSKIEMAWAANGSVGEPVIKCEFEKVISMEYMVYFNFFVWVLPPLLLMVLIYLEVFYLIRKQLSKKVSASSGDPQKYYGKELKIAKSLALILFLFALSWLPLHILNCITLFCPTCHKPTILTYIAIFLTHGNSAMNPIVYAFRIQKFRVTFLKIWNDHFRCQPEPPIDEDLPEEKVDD
Description: SQ (stimulus to Q interval) prolongation in isolated perfused heart (Langendorff preparation). The settings on record: isolated perfused guinea pig heart; concentration for half-maximal prolongation of stimulus to Q interval; read-out: SQ Prolongation (A1) ED50. How it is done: as §1

For assay [3], the system named is A2 receptor of the coronary artery. Description: Coronary flow increase in isolated perfused heart (Langendorff preparation). The settings on record: ratio of A1 (SQ prolongation) and A2 (coronary flow) effects. How it is done: as §1
Setting [4] is: isolated perfused guinea pig heart, concentration for half-maximal increase in coronary flow, stepwise infusion every 5 minutes, read-out: Coronary Blood Flow Increase (A2) EC50.

T1 sequence (P46616 whole entry, the tested form may be a part): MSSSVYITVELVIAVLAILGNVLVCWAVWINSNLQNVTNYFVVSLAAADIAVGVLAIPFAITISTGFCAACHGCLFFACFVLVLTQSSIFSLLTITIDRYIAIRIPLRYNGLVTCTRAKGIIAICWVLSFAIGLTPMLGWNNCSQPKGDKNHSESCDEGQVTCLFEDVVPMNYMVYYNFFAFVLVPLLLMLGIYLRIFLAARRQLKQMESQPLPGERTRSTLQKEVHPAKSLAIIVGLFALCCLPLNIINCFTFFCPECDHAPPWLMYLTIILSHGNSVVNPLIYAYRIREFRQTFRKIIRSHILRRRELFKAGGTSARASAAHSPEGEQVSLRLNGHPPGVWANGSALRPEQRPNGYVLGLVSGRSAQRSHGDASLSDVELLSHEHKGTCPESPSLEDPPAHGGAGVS

For `Nc1nc(OCCCc2ccccc2)nc2c1ncn2[C@@H]1O[C@H](CO)[C@@H](O)[C@H]1O` [Example 1, 2-(3-phenyl-1-propoxy)adenosine], the EC50 in assay [1] (setting [4]) is 61.3 nM.

Take `Nc1nc(OCCc2ccc(F)cc2)nc2c1ncn2[C@@H]1O[C@H](CO)[C@@H](O)[C@H]1O` [Example 2, 2-[2-(4-fluorophenyl)ethoxy]adenosine]: in assay [1] (setting [4]), the EC50 stood at 0.9 nM.

Regarding `Nc1nc(OC2CCCC2)nc2c1ncn2[C@@H]1O[C@H](CO)[C@@H](O)[C@H]1O` [Example 3, 2-Cyclopentyloxyadenosine], the EC50 stood at 91.7 nM in assay [1] (setting [4]) and 79400 nM in assay [2].

As to `Nc1nc(OC2CCCCC2)nc2c1ncn2[C@@H]1O[C@H](CO)[C@@H](O)[C@H]1O` [Example 4, 2-Cyclohexyloxyadenosine], the results for the EC50 in assay [1] (setting [4]) and in assay [2] were 657 nM and 100000 nM, respectively.

Consider `Nc1nc(OCCC2CCCCC2)nc2c1ncn2[C@@H]1O[C@H](CO)[C@@H](O)[C@H]1O` [Example 5, 2-(2-Cyclohexylethoxy)adenosine], for which, in assay [2], the EC50 stood at 8630 nM.

For `Nc1nc(OCc2ccccc2)nc2c1ncn2[C@@H]1O[C@H](CO)[C@@H](O)[C@H]1O` [Example 6, 2-benzyloxyadenosine], in assay [1] (setting [4]), the EC50 came to 419 nM. Moreover, the “Selectivity (A1/A2)” value in assay [3] was determined as 15.

`Nc1nc(OCCc2ccccc2)nc2c1ncn2[C@@H]1O[C@H](CO)[C@@H](O)[C@H]1O` [Example 7, 2-(2-phenylethoxy)adenosine]: the EC50 in assay [1] (setting [4]) turned out to be 2.8 nM.

In the case of `COc1ccccc1CCOc1nc(N)c2ncn([C@@H]3O[C@H](CO)[C@@H](O)[C@H]3O)c2n1` [Example 8, 2-[2-(2-methoxyphenyl)ethoxy]adenosine], the EC50 in assay [1] (setting [4]) was found to be 32 nM.

As for `COc1cccc(CCOc2nc(N)c3ncn([C@@H]4O[C@H](CO)[C@@H](O)[C@H]4O)c3n2)c1` [Example 9, 2-[2-(3-methoxyphenyl)ethoxy]adenosine], in assay [1] (setting [4]), the EC50 was 2.6 nM.

In the case of `COc1ccc(CCOc2nc(N)c3ncn([C@@H]4O[C@H](CO)[C@@H](O)[C@H]4O)c3n2)cc1` [Example 10, 2-[2-(4-methoxyphenyl)ethoxy]adenosine], in assay [1] (setting [4]), the EC50 was 1.4 nM.

Turning to `Cc1ccccc1CCOc1nc(N)c2ncn([C@@H]3O[C@H](CO)[C@@H](O)[C@H]3O)c2n1` [Example 11, 2-[2-(2-methylphenyl)ethoxy]adenosine], in assay [1] (setting [4]), the EC50 was 3.8 nM.

Consider `COc1cc(CCOc2nc(N)c3ncn([C@@H]4O[C@H](CO)[C@@H](O)[C@H]4O)c3n2)cc(OC)c1OC` [Example 12, 2-[2-(3,4,5-trimethoxyphenyl)ethoxy]adenosine], for which the EC50 in assay [1] (setting [4]) amounted to 22 nM.

The molecule `Nc1nc(OCCc2cccs2)nc2c1ncn2[C@@H]1O[C@H](CO)[C@@H](O)[C@H]1O` [Example 13, 2-[2-(2-thienyl)ethoxy]adenosine] came in with an EC50 in assay [1] of 3.7 nM.

Consider `Nc1nc(OCCc2ccsc2)nc2c1ncn2[C@@H]1O[C@H](CO)[C@@H](O)[C@H]1O` [Example 14, 2-[2-(3-thienyl)ethoxy]adenosine], for which the EC50 in assay [2] was found to be 18800 nM.

On to `CC(COc1nc(N)c2ncn([C@@H]3O[C@H](CO)[C@@H](O)[C@H]3O)c2n1)c1ccccc1` (stereo partly drawn) [Example 17, 2-(2-phenyl-1-propoxy)adenosine], for which the EC50 in assay [1] (setting [4]) amounted to 9 nM; in assay [2] it was 53100 nM.

Consider `CC[C@@H](COc1nc(N)c2ncn([C@@H]3O[C@H](CO)[C@@H](O)[C@H]3O)c2n1)c1ccccc1` [Example 18], for which the “Selectivity (A1/A2)” value in assay [3] came to 50.

`CC[C@H](COc1nc(N)c2ncn([C@@H]3O[C@H](CO)[C@@H](O)[C@H]3O)c2n1)c1ccccc1` [Example 19, 2-[(2S)-phenyl-1-butoxy]adenosine]: the results for the EC50 in assay [1] (setting [4]) and in assay [2] were 31.4 nM and 27400 nM, respectively.

For the molecule `Nc1nc(OCCCCc2ccccc2)nc2c1ncn2[C@@H]1O[C@H](CO)[C@@H](O)[C@H]1O` [Example 20, 2-(4-phenyl-1-butoxy)adenosine], the EC50 in assay [1] is 9.9 nM; in assay [2] it was 7360 nM.

With `CCNC(=O)[C@H]1O[C@@H](n2cnc3c(N)nc(OCCc4ccccc4)nc32)[C@H](O)[C@@H]1O` [Example 22, 2-(2-phenyl)ethoxy-5'-N-ethylcarboxamidoadenosine], the EC50 in assay [1] (setting [4]) came to 1.3 nM; in assay [2] it was 15000 nM.

`Nc1nc(OCCCC2CCCCC2)nc2c1ncn2[C@@H]1O[C@H](CO)[C@@H](O)[C@H]1O` [Example 23, 2-(3-cyclohexyl)propoxyadenosine]: the EC50 in assay [2] is 3760 nM.
